Measurements taken from patent US20260146025A1, “CRYSTALLINE POLYMORPHS OF MITAPIVAT AND MITAPIVAT HEMISULFATE” (TIANISH LABORATORIES PRIVATE LIMITED, priority 2022, published 2026).
Counter-ions that a name gives are not always drawn.

Assay: Physical stability of polymorphs on storage, tested by PXRD
Format: physicochemical
Details: for physical stability (PXRD analysis): up to three months
Description: The powder X-ray diffraction patterns of said polymorphs of the invention were measured on a PANalytical X′Pert PRO powder diffractometer equipped with a goniometer of θ/θ configuration and X'Celerator detector. The Cu-anode X-ray tube was operated at 40 kV and 30 mA. The experiments were conducted over the 2θ range of 2.0°-50.0°, 0.0330 step size and 50 seconds step time.
In yet another embodiment, the physical stability of crystalline mitapivat hemi sulfate Form VII and crystalline mitapivat hemi sulfate Form XI were determined by storing the samples at 40° C./75% relative humidity (RH) and at 25° C./60% RH conditions for three months as shown in Table 1.

| Compound | physical stability (PXRD analysis) (25° C./60% relative humidity (RH)) | physical stability (PXRD analysis) (40° C./75% relative humidity (RH)) | PXRD (physical stability) (stored at 25° C./60% RH, 1 month) | PXRD (physical stability) (stored at 25° C./60% RH, 2 months) | PXRD (physical stability) (stored at 25° C./60% RH, 3 months) | PXRD (physical stability) (stored at 40° C./75% RH, 1 month) | PXRD (physical stability) (stored at 40° C./75% RH, 3 months) | PXRD (physical stability) (stored at 40° C./75% RH, 2 months) |
| --- | --- | --- | --- | --- | --- | --- | --- | --- |
| O=C(c1ccc(NS(=O)(=O)c2cccc3cccnc23)cc1)N1CCN(CC2CC2)CC1 [Mitapivat hemi sulfate Form VII, 8-quinolinesulfonamide, N-[4-[[4(cyclopropylmethyl)-1-piperazinyl]carbonyl]phenyl]-, sulfate] | physically stable | physically stable | Stable | Stable | Stable | Stable | Stable | – |
| O=C(c1ccc(NS(=O)(=O)c2cccc3cccnc23)cc1)N1CCN(CC2CC2)CC1 [Mitapivat hemi sulfate Form XI, 8-quinolinesulfonamide, N-[4-[[4(cyclopropylmethyl)-1-piperazinyl]carbonyl]phenyl]-, sulfate] | – | – | – | – | – | – | – | Stable |
